{"source": "patent US20240238237A1", "about": "“CONJUGATED LINOLEIC ACID SUPPLEMENTATION FOR DISEASE TREATMENT” (VIRGINIA TECH INTELLECTUAL PROPERTIES, INC., priority 2021, published 2024)", "assay_type_in_all_cases": "in vivo, mouse", "key": {"[1]": {"tested_on": "WT, PWS (Snord116m+/p−) and PWS-KO (Snord116m−/p−) mice", "experiment": "Weekly body weight, fat and lean mass (NMR), rectal temperature and food intake, Example 1", "method": "All animal protocols were approved by the Institutional Animal Care and Use Commit-tee at Virginia Tech. Mice with the Snord116 paternal deletion (B6[Cg]-Snord116tm1.1Uta/J Stock No: 008149|1-loxp (KO), Snord116del) were obtained from Jackson Laboratories and maintained on a C57Bl/6 background. Genotyping and breeding were performed as reported. WT mice for the study were siblings of either the PWS (Snord116m+/p−) or PWS-KO (Snord116m−/p−) mice. PWS mice were generated by crossing WT females and male mice who were Snord116m−/p+. Breeder males (Snord116m−/p+) were generated in separate crosses to inherited their deleted allele from a maternal chromosome so that they were considered phenotypically normal in regards to Snord116 expression. PWS-KO (Snord116m−/p−) mice were generated by using non-sibling male and female mice of the genotype Snord116m−/p+ who had inherited their deleted allele maternally. In this type of mating, 50% of the offspring would be heterozygous (and never used for mating or the study, as the origin of their deleted allele could not be determined), and 25% each would have WT alleles or would be PWS-KO. Mice were housed at room temperature at about 22° C. with 12 h light/dark cycles at 7 a.m. and 7 p.m. and ad-libitum access to food (4.5% crude fat) and water. Mice were weaned at 3 weeks old, genotyped using an ear snip, […]. ear tagged, and housed with littermates of the same sex. For tissue dissection, mice were euthanized by CO2 asphyxiation between 12 p.m. and 2 p.m.\nBody weight, fat, and lean mass, rectal temperature, and food intake were measured weekly. For body weight, fat, and lean mass measurements, mice were weighed on Mondays using a standard scale, and then placed in a Bruker (Billrica, MA, USA) LF90 NMR machine using the mouse holder. Measurements were recorded in grams for fat and lean mass.\nAll values were expressed as mean+SEM unless indicated otherwise. Comparison of means between groups and calculation of p-values were made using JMP Pro15 software (Cary, NC, USA), with Tukey's post hoc analysis for multiple comparisons when overall p-values in the comparison were significant. For the responses of weight, fat, lean mass, temperature, and food intake shown in figures, a fitted least squares regression with effects of genotype, treatment, and genotype×treatment was analyzed for Week 12 data only. Responses of these dependent variables were also analyzed across the 12-week time period, adding in effects of week, week×treatment, and week×genotype. […] The responses that had pre-post measures (wheel running, elevated plus, fasting glucose, glucose tolerance) were analyzed separately for the pre and post time periods (no effect of time). Animals were grouped together for the pre time period, regardless of their assigned data, as all animals were on standard mouse chow at that time. […] Rotarod data were collected only during the post-period and analyzed with a response of time and effects of genotype, treatment, and genotype×treatment. For area-under-the-curve calculations, the formula function in JMP was used to calculate the area for individual animals pre and post, and then fit least squares regression model used for effects of genotype, treatment, and genotype×treatment."}, "[2]": {"tested_on": "WT, PWS (Snord116m+/p−) and PWS-KO (Snord116m−/p−) mice", "experiment": "Elevated plus maze anxiety-like behavior, Example 1", "settings": "pre- and post-intervention; genotype, treatment or interaction", "method": "A plus-shaped elevated plus apparatus with two open and two closed arms was constructed using measurements obtained from a commercial apparatus. This elevated plus maze was used for anxiety-like behavior analysis. The maze was cleaned with 70% ethanol before and after the procedure for each mouse and allowed to fully dry between mice. Mice were placed in the center/cross-arms and allowed to freely explore the maze for 5 min while the duration and frequency of entries into open and closed arms was recorded. Animals that enter the open arms more frequently are considered to display less overall anxiety-like behavior than those that stay in the closed arms."}, "[3]": {"tested_on": "Normal, Snord116m+/p− (PWS model) and PWS KO mice", "experiment": "Body weight, body fat and lean mass, 12-week feeding study, Example 2", "settings": "12 weeks, CLA 0.5% per gram food", "from_the_text": "Normal an d Snord116^m+/p− mice (PWS model), as well as mice with a complete deletion of Snord116 (PWS KO) were randomly divided into control or CLA-treatment groups. the diets (from Envigo/Harland-Teklad) were composed of 20% fat, and matched in all other components. Conjugated linoleic acid (Tonalin™, composed of 60%-90% of the cis-9, trans-11 and trans-10, cis-12 CLA isomers in a 50/50 ratio) was provided to the CLA-treatment groups to equal 0.5% per gram food intake.\nAdult mice (aged 8-10 weeks) were housed individually, and given ad libitum access to either control or CLA food for 12 weeks. They were weighed weekly, and food intake, body fat, body lean mass, and rectal temperature were measured weekly."}}, "note": "Entries after “also recorded” stand apart in the source; their conditions may differ.", "data": [{"substance": "conjugated linoleic acid [CLA]", "values": [{"measurement": "Body fat, WT control diet more than WT CLA diet", "setting": "[1]; WT mice, end of study", "value": "~4", "unit": "g"}, {"measurement": "Reduction in body fat levels with treatment", "setting": "[1]; all genotypes, vs control HFD alone", "value": 3.6, "unit": "fold"}, {"measurement": "Body weight, overall effect of CLA diet", "setting": "[1]; all three genotypes, 20% fat diet, vs control diet", "value": "significant reductions in body weight overall for the three genotypes"}, {"measurement": "Body weight, post hoc per genotype", "setting": "[1]; each genotype on CLA diet vs control diet", "value": "significant body weight reductions"}, {"measurement": "Lean mass, treatment effect", "setting": "[1]; whole model, 12 weeks", "value": "without a treatment effect"}, {"measurement": "Time in open arms, elevated plus", "setting": "[2]", "value": "no differences"}, {"measurement": "Lean (muscle) mass", "setting": "[3]", "value": "no changed; also recorded: did not change"}, {"measurement": "Body fat", "setting": "[3]; vs control diet", "value": "significant reduction"}, {"measurement": "Body weight", "setting": "[3]; vs control diet", "value": "significant reduction"}]}]}
